# Values of other authors as cited in patent CN114831954A, “一种左氧氟沙星片” (priority 2022, dated 2022).
# What was measured:
# [1] = test system: Gram-positive and Gram-negative bacteria [革兰氏阳性菌和阴性菌]; conditions: background statement
# [2] = in vivo, po
# [3] = background statement
smiles,measurement,setting,value
CC1COc2c(N3CCN(C)CC3)c(F)cc3c(=O)c(C(=O)O)cn1c23 (stereo not shown) [氧氟沙星],antibacterial effect,[1]; Gram-positive and Gram-negative bacteria,对革兰氏阳性菌和阴性菌均有光谱的效果
same,concentration dependence of antibacterial effect,[1],具有明显的浓度依赖性
same,gastrointestinal adverse reactions,[2],有胃肠不良反应
same,biological half-life,[3],~6 h
